From patent US9784746B2, “Method for studying transport of an agent across a bilayer membrane in bioanalytical sensor applications” (Bio-Rad Laboratories, Inc., priority 2008, dated 2017)
Blank lines part the entries; values can stand above or below the molecule they belong to.

Assays:
[1] = Membrane transport of ions across gramicidin-containing liposomes (SPR); format: physicochemical; details: gramicidin incorporated for K+ co-transport; FIG. 7
Excerpt: Information of this type is of high relevance in studies on how, for example, drugs influence the permeability of cell-membranes. Both passive and membrane-protein mediated transfer of uncharged solutes is of high biological and pharmaceutical relevance. However, for a method like this to be generically applicable for any type of membrane transport reaction, also ion translocation should be possible to measure, which is today typically measured using patch-clamp based assays. FIG. 7 illustrates membrane transport of iodide (˜10 s) and chloride (˜200 s) ions, in excellent agreement with literature data. Note that gramicidin was incorporated into the liposomes in order to ensure co-transport of counter ions (K+), thus prohibiting the establishment of an electrostatic transmembrane potential that would otherwise restrict the unhindered transport of anions.

[2] = Glycerol transport across liposome membrane versus cholesterol content (SPR); format: physicochemical
Description: At first 70 nm liposomes were provided in accordance with Example 1. […] Also shown in FIG. 4b (dashed curve) is an identical rinsing step without immobilized liposomes, illustrating that the time constant of the fluidic exchange is faster than 100 ms, which is sufficient to temporally resolve these transport measurements. The rate of glycerol release was examined in a temperature interval from 8 to 22° C. […] In agreement with expectations, the rate of transport across the lipid membrane increases with increasing temperature, and Arrhenius plots display a linear dependence between ln(1/) and 1/T, yielding activation energies in excellent agreement with literature data for the three solutes (glycerol, urea and hydroxyurea) investigated, see FIG. 5b.
70 nm liposomes containing 40% cholesterol were provided in accordance with Example 1. Binding of the liposomes followed by repeated injection cyclodextrin, which removes cholesterol from the lipid bilyaer of the liposomes is shown in FIG. 6a. The SPR response is proportional to the interfacial refractive index, which makes it possible to quantify the removal of cholesterol. […]
Each injection of cyclodextrin (FIG. 6a) was followed by an injection pulse of glycerol, which enabled the time constant of glycerol transport versus cholesterol content to be quantified, ranging from around 7 s at 40% cholesterol to 1 s at 14% cholesterol, see FIG. 6b. […]

[3] = Melittin binding to tethered POPC liposomes (Biacore SPR)
Description: Liposomes were made by first evaporating the solvent, chloroform, from the POPC lipids using a flow of nitrogen gas. The dried lipids were then kept under the flow of nitrogen gas for at least one hour after which HEPES-2 was added to yield a 4 mg/ml concentration of POPC. The dissolved POPC lipids were vortexed for at least 30 min to yield multi-laminar liposomes. Uni-laminar liposomes were produced using a mini extruder and polycarbonate membranes with pore size of 50 nm from Avanti Polar Lipids® with a 50 nm pore size. […] The liposomes were stored under nitrogen gas at 4° C. until use (within 2 days).
A mixture (300 μl) of HS-PEG (200 μg/ml) and HS-PEG-Biotin (20 μg/ml), dissolved in HEPES-2, were injected over the Biacore® Au sensor chip at a flow rate of 5 μl/min. Then a mixture (150 μl) of NeutrAvidin (40 μg/ml) and Biotin-DNA (0.7 μM) was injected and bound to HS-PEG-Biotin at the surface.
POPC liposomes (2 mg/ml, in HEPES-2) containing cholesterol-DNA tags (3 DNA tags per liposome) were injected at a flow rate of 5 μl/min. The end of the DNA-part of the cholesterol-DNA tag is single-stranded and complementary in sequence to the Biotin-DNA at the surface enabling tethering of the liposomes to the sensor surface.
The reversible binding of melittin was measured in the Biacore® instrument directly after the tethering of POPC liposomes was finished. Melittin solutions at a concentration of 0.5-40 μM in HEPES-2 were injected in sequence. During injection the melittin molecules bind to the liposomes and after the injection is terminated, running buffer (HEPES-2) flows over the surface and melittin dissociates. After the dissociation was complete a new melittin solution of different concentration was injected.
Melittin solutions of various concentrations (0.5-40 μM) were injected over the bound liposomes in the Biacore® instrument at 5 μl/min. The change in response (RU) as a function of time (t) was fitted to RU=RU0+RU1*(1−exp(−t/τ1))+RU2*(1−exp(−t/τ2)). However, the change in RU during the injection of 0.5 μM melittin could be described using only one exponential (i.e. RU2=0). It is known that high concentrations of melittin can rupture cells and liposomes. Unspecific binding (i.e. binding to the biosensor surface without liposomes) of melittin was small, less than 5% of the binding of melittin to the liposome membrane surface (data not shown).

[4] = Melittin pore mediated sucrose uptake into tethered liposomes (SPR refractive index); format: physicochemical
Description: After tethering of NeutrAvidin/Biotin-DNA the following injections were made in sequential order; 0.1 M sucrose, 2 mg/ml cholesterol-DNA tagged POPC-liposomes, 0.1 M sucrose, 40 μM melittin, 0.1 M sucrose, 0.1 M sucrose, 0.1 M sucrose. All samples were dissolved in HEPES-2.
A simple method for real-time and label-free uptake measurements of analytes across membranes at a biosensor surface would be of great value when investigating for example membrane transporters. Here we wanted to test if it was possible to measure the uptake of an analyte, sucrose, through the melittin pore by simply detecting the change in refractive index of the solution inside the liposome caused by the analyte as it is taken up.
Adding sucrose changes the refractive index of the solution in the detection volume, i.e. the volume corresponding to the evanescent field above the sensor surface, which is manifested as a shift in RU. […]
The amplitude of the uptake decrease from S3 to S5, which is explained by a decreasing number of liposomes having pores. […] The expected RU of the 7400 sucrose molecules (0.1 M) inside the liposome can be calculated from the obtained response of immobilizing the liposome itself (RU=6790). […] Since only ˜85% of the liposomes have pores the expected value is 480/0.85≈560 RU, which is in good agreement with the measured response of 530 RU from the S3 injection.

[5] = Cyclodextrin removal of cholesterol from liposome bilayer (SPR); details: after seven injections; start 40% cholesterol
Excerpt: 70 nm liposomes containing 40% cholesterol were provided in accordance with Example 1. Binding of the liposomes followed by repeated injection cyclodextrin, which removes cholesterol from the lipid bilyaer of the liposomes is shown in FIG. 6a. The SPR response is proportional to the interfacial refractive index, which makes it possible to quantify the removal of cholesterol. After seven injections of cyclodextrin, the cholesterol content was reduced to 14%.

[6] = outer membrane, fast phase, fit of k1 vs [Mel]B, 0.5-40 μM, HEPES-2

Molecule: Cl [chloride]
- membrane transport time [1]: ~200 s

- time constant of glycerol transport ([2]; 14% cholesterol): ~1 s
- time constant of glycerol transport ([2]; 40% cholesterol): around 7 s
Molecule: OCC(O)CO [glycerol]

- membrane transport time [1]: ~10 s
Molecule: I [iodide]

Molecule: CC[C@H](C)[C@H](NC(=O)CN)C(=O)NCC(=O)N[C@@H](C)C(=O)N[C@H](C(=O)N[C@@H](CC(C)C)C(=O)N[C@@H](CCCCN)C(=O)N[C@H](C(=O)N[C@@H](CC(C)C)C(=O)N[C@H](C(=O)N[C@H](C(=O)NCC(=O)N[C@@H](CC(C)C)C(=O)N1CCC[C@H]1C(=O)N[C@@H](C)C(=O)N[C@@H](CC(C)C)C(=O)N[C@H](C(=O)N[C@@H](CO)C(=O)N[C@@H](Cc1c[nH]c2ccccc12)C(=O)N[C@H](C(=O)N[C@@H](CCCCN)C(=O)N[C@@H](CCCNC(=N)N)C(=O)N[C@@H](CCCCN)C(=O)N[C@@H](CCCNC(=N)N)C(=O)N[C@@H](CCC(N)=O)C(=O)N[C@@H](CCC(N)=O)C(N)=O)[C@@H](C)CC)[C@@H](C)CC)[C@@H](C)O)[C@@H](C)O)C(C)C)C(C)C [melittin]
- k+2 (apparent, slower kinetic phase, binding to inner membrane) ([3]; linear fit of k2 vs [Mel]B): 56 M⁻¹ s⁻¹
- k−2 (slower kinetic phase, binding to inner membrane) ([3]; linear fit of k2 vs [Mel]B): 0.0046 s⁻¹
- microscopic off-rate k−1 of melittin with the liposome membrane surface [3, 6]: 0.032 s⁻¹
- microscopic on-rate k+1 of melittin with the liposome membrane surface [3, 6]: 3684 M⁻¹ s⁻¹

Molecule: OC[C@H]1O[C@@](CO)(O[C@H]2O[C@H](CO)[C@@H](O)[C@H](O)[C@H]2O)[C@@H](O)[C@@H]1O [sucrose]
- decay time for uptake of sucrose τ3 ([4]; 0.1 M sucrose after 40 μM melittin (S3), estimated from FIG. 3): ≈ 20 sec
- number of sucrose molecules that cross the membrane per liposome ([4]; in ˜20 sec, inside concentration 0.1 M): ~7400

Molecule: cyclodextrin
- cholesterol content of liposomes after cyclodextrin [5]: 14%
